Where no end group is shown, it is not given here. [ ]: non-standard residue; d: D form. Ahx = NCCCCCC(=O)O
Tested on: T-cells from NOD mice
Test: ELISPOT of IL-4 and IFN-γ release by T-cells from treated NOD mice (TH1/TH2 frequency)
Assay type: in vivo, mouse
Source text: Groups of 3-5 NOD mice were immunized subcutaneously (s.c.) with the GAD 65 peptide in CFA (40 nanomoles/mouse) at the tail base. Different groups received either the EGAD-BPI, its single TCR epitope (Signal-1 moiety), or its CD11a peptide (Signal-2 moiety) i.v. (all 40 nanomoles/mouse). After 6-8 days, another identical 40 nanomole injection was given to each mouse, and the next day lymph nodes draining the site of the s.c. injection were made into single cell suspensions for culture. Identical primary cultures were incubated for 96 hours; then, viable T-cells were recovered by density gradient centrifugation. One million of these cells were combined in nitrocellulose-bottomed 96-well plates (Millititer-HA, Millipore, Bedford, Mass.), previously coated (50 μl/well) with mAb to either mouse IFNγ (clone R4-6A2), or mouse IL-4 (clone BVD4-1D11) at a concentration of 10 μg/ml in PBS. Groups of triplicate cultures were incubated with either Concanavalin-A (2 μg/ml), or the Signal-1 peptide moiety plus 20 U/ml recombinant IL2 (R & D Systems). After 72-96 hours of culture at 37° C. and 5% CO2, plates were washed three times with PBS-0.05% Tween-20. In appropriate wells are added biotinylated anti-IFNγ (clone XMG1.2) or biotinylated anti-IL-4 (clone BVD6-24G2) at a concentration of 1 μg/ml and incubated for 1 hour at room temperature. Positive control wells receive known TH1 or TH2 clones in place of normal T-cells. MAb pairs to IL12, IL10, and IL2 are also available and will be used to test for these cytokines in the same assay. All mAb and recombinant controls are purchased from PharMingen (San Diego, Calif.). Finally, plates were washed three times with PBS-Tween, and then exposed to 100 μl of a 1:2000 dilution of streptavidin alkaline phosphatase (Jackson ImmunoResearch, West Grove, Pa.) for 1 h and washed as before. […]

With “GAD65(208-217)-[Ac-G-Ac-G-Ac]-CD11a (237-247) (EIAPVFVLLE[Ahx]G[Ahx]G[Ahx]ITDGEATDSG) [EGAD-BPI]” the IFN-γ production (T-cells from treated animals stimulated in vitro with mitogen) was “also increased, although to a lesser extent”, the IL-4 production increase (T-cells from treated animals stimulated in vitro with mitogen, versus saline control, 40 nanomoles/mouse i.v. twice) was “approximately 10 fold” and the IL-4 production (treated NOD mice versus control mice) was “abundant IL-4”.

— patent US7786257B2, “Signal-1/signal-2 bifunctional peptide inhibitors” (priority 2000, dated 2010)
